From patent US20260060250A1, “HERBICIDAL PYRIDONE DERIVATIVES” (SYNGENTA CROP PROTECTION AG, priority 2022, published 2026)

Legend:
Type in all cases: in vivo
Conditions in all cases: 1000 g/ha, evaluated after 13 days
[1] = test system: Amaranthus palmeri (AMAPA); test: Pre-emergence Test (Table B1)
[2] = test system: Ipomoea hederacea (IPOHE); test: Pre-emergence Test (Table B1); design: key: 5=81-100%; 4=61-80%; 3=41-60%; 2=21-40%; 1=0-20%; 0=inactive
Setaria faberi (SETFA) [3] = test: Post-emergence Test (Table B2)
Protocol: (§1) Seeds of a variety of test species are sown in standard soil in pots (Amaranthus palmeri (AMAPA), Setaria faberi (SETFA), Echinochloa crus-galli (ECHCG), (Amaranthus retroflexus (AMARE), Zea mays (ZEAMX), Ipomoea hederacea (IPOHE)). After 8 days cultivation under controlled conditions in a glasshouse (at 24° C./16° C., day/night; 14 hours light; 65% humidity), the plants are sprayed with an aqueous spray solution derived from the formulation of the technical active ingredient in acetone/water (50:50) solution containing 0.5% Tween 20 (polyoxyethelyene sorbitan monolaurate, CAS RN 9005-64-5). Compounds are applied at 1000 g/ha unless otherwise stated. The test plants are then grown in a glasshouse under controlled conditions in a glasshouse (at 24° C./16° C., day/night; 14 hours light; 65% humidity) and watered twice daily. After 13 days the test is evaluated for the percentage damage caused to the plant.

[4] = test system: Amaranthus palmeri (AMAPA); test: Post-emergence Test (Table B2)
Protocol: as §1

[5] = test system: Amaranthus retroflexus (AMARE); test: Post-emergence Test (Table B2)
Protocol: as §1

Zea mays (ZEAMX) [6] = test: Pre-emergence Test (Table B1); design: key: 5=81-100%; 4=61-80%; 3=41-60%; 2=21-40%; 1=0-20%; 0=inactive
[7] = test system: Echinochloa crus-galli (ECHCG); test: Post-emergence Test (Table B2); design: key: 5=81-100%; 4=61-80%; 3=41-60%; 2=21-40%; 1=0-20%; 0=inactive
Protocol: as §1

Zea mays (ZEAMX) [8] = test: Post-emergence Test (Table B2); design: key: 5=81-100%; 4=61-80%; 3=41-60%; 2=21-40%; 1=0-20%; 0=inactive
Protocol: as §1

[9] = test system: Ipomoea hederacea (IPOHE); test: Post-emergence Test (Table B2); design: key: 5=81-100%; 4=61-80%; 3=41-60%; 2=21-40%; 1=0-20%; 0=inactive
Protocol: as §1

Setaria faberi (SETFA) [10] = test: Pre-emergence Test (Table B1); design: key: 5=81-100%; 4=61-80%; 3=41-60%; 2=21-40%; 1=0-20%; 0=inactive
[11] = test system: Echinochloa crus-galli (ECHCG); test: Pre-emergence Test (Table B1); design: key: 5=81-100%; 4=61-80%; 3=41-60%; 2=21-40%; 1=0-20%; 0=inactive
[12] = test system: Amaranthus retroflexus (AMARE); test: Pre-emergence Test (Table B1)

SMILES | percentage damage caused to the plant, AMAPA [1] | percentage damage caused to the plant, IPOHE [2] | percentage damage caused to the plant, SETFA (Setaria faberi (SETFA) [3]) | percentage damage caused to the plant, AMAPA [4] | percentage damage caused to the plant, AMARE [5] | percentage damage caused to the plant, ZEAMX (Zea mays (ZEAMX) [6]) | percentage damage caused to the plant, ECHCG [7] | percentage damage caused to the plant, ZEAMX (Zea mays (ZEAMX) [8]) | percentage damage caused to the plant, IPOHE [9] | percentage damage caused to the plant, SETFA (Setaria faberi (SETFA) [10]) | percentage damage caused to the plant, ECHCG [11] | percentage damage caused to the plant, AMARE [12]
CCn1c(C)c(-c2cc(C(=O)OC(C)CF)ccc2F)c(=O)c(C(=O)O)c1-c1ccc(Cl)c(Cl)c1 (stereo not drawn) [Compound 9, 2-(3,4-dichlorophenyl)-1-ethyl-5-[2-fluoro-5-(2-fluoro-1-methyl-ethoxy)carbonyl-phenyl]-6-methyl-4-oxo-pyridine-3-carboxylic acid] | 5 (5=81-100%) | 0 | 3 (3=41-60%) | 4 (4=61-80%) | 5 (5=81-100%) | 1 (1=0-20%) | 2 (2=21-40%) | 2 (2=21-40%) | 1 (1=0-20%) | 2 (2=21-40%) | 1 (1=0-20%) | 5 (5=81-100%)
CCn1c(C)c(-c2cc(C(=O)OC(C)C(C)=O)ccc2F)c(=O)c(C(=O)O)c1-c1ccc(Cl)c(Cl)c1 (stereo not drawn) [Compound 10, 2-(3,4-dichlorophenyl)-1-ethyl-5-[2-fluoro-5-(1-methyl-2-oxo-propoxy)carbonyl-phenyl]-6-methyl-4-oxo-pyridine-3-carboxylic acid] | 5 (5=81-100%) | 0 | 4 (4=61-80%) | 5 (5=81-100%) | 5 (5=81-100%) | 0 | 2 (2=21-40%) | 3 (3=41-60%) | 1 (1=0-20%) | 0 | 0 | 5 (5=81-100%)
CCC#CC(C)OC(=O)c1ccc(F)c(-c2c(C)n(CC)c(-c3ccc(Cl)c(Cl)c3)c(C(=O)O)c2=O)c1 (stereo not drawn) [Compound 11, 2-(3,4-dichlorophenyl)-1-ethyl-5-[2-fluoro-5-(1-methylpent-2-ynoxycarbonyl)phenyl]-6-methyl-4-oxo-pyridine-3-carboxylic acid] | 5 (5=81-100%) | 0 | 4 (4=61-80%) | 5 (5=81-100%) | 5 (5=81-100%) | 0 | 4 (4=61-80%) | 2 (2=21-40%) | 3 (3=41-60%) | 0 | 0 | 5 (5=81-100%)
C#CC(C)OC(=O)c1ccc(F)c(-c2c(C)n(CC)c(-c3ccc(Cl)c(Cl)c3)c(C(=O)O)c2=O)c1 (stereo not drawn) [Compound 12, 2-(3,4-dichlorophenyl)-1-ethyl-5-[2-fluoro-5-(1-methylprop-2-ynoxycarbonyl)phenyl]-6-methyl-4-oxo-pyridine-3-carboxylic acid] | 4 (4=61-80%) | 1 (1=0-20%) | 5 (5=81-100%) | 5 (5=81-100%) | 5 (5=81-100%) | 1 (1=0-20%) | 4 (4=61-80%) | 3 (3=41-60%) | 2 (2=21-40%) | 4 (4=61-80%) | 3 (3=41-60%) | 5 (5=81-100%)
C=CCC(C)OC(=O)c1ccc(F)c(-c2c(C)n(CC)c(-c3ccc(Cl)c(Cl)c3)c(C(=O)O)c2=O)c1 (stereo not drawn) [Compound 13, 2-(3,4-dichlorophenyl)-1-ethyl-5-[2-fluoro-5-(1-methylbut-3-enoxycarbonyl)phenyl]-6-methyl-4-oxo-pyridine-3-carboxylic acid] | 4 (4=61-80%) | 0 | 2 (2=21-40%) | 4 (4=61-80%) | 4 (4=61-80%) | 0 | 1 (1=0-20%) | 2 (2=21-40%) | 2 (2=21-40%) | 2 (2=21-40%) | 1 (1=0-20%) | 4 (4=61-80%)
CCOCC(C)OC(=O)c1ccc(F)c(-c2c(C)n(CC)c(-c3ccc(Cl)c(Cl)c3)c(C(=O)O)c2=O)c1 (stereo not drawn) [Compound 14, 2-(3,4-dichlorophenyl)-5-[5-(2-ethoxy-1-methyl-ethoxy)carbonyl-2-fluoro-phenyl]-1-ethyl-6-methyl-4-oxo-pyridine-3-carboxylic acid] | 5 (5=81-100%) | 0 | 3 (3=41-60%) | 5 (5=81-100%) | 5 (5=81-100%) | 0 | 3 (3=41-60%) | 1 (1=0-20%) | 0 | 3 (3=41-60%) | 0 | 5 (5=81-100%)
CC#CC(C)OC(=O)c1ccc(F)c(-c2c(C)n(CC)c(-c3ccc(Cl)c(Cl)c3)c(C(=O)O)c2=O)c1 (stereo not drawn) [Compound 15, 2-(3,4-dichlorophenyl)-1-ethyl-5-[2-fluoro-5-(1-methylbut-2-ynoxycarbonyl)phenyl]-6-methyl-4-oxo-pyridine-3-carboxylic acid] | 5 (5=81-100%) | 0 | 5 (5=81-100%) | 5 (5=81-100%) | 5 (5=81-100%) | 0 | 5 (5=81-100%) | 4 (4=61-80%) | 2 (2=21-40%) | 0 | 0 | 5 (5=81-100%)
C#CC(C)OC(=O)c1cc(-c2c(C)n(CC)c(-c3ccc(Cl)c(Cl)c3)c(C(=O)O)c2=O)c(F)cc1Cl (stereo not drawn) [Compound 20, 5-[4-chloro-2-fluoro-5-(1-methylprop-2-ynoxycarbonyl)phenyl]-2-(3,4-dichlorophenyl)-1-ethyl-6-methyl-4-oxo-pyridine-3-carboxylic acid] | 5 (5=81-100%) | 0 | 5 (5=81-100%) | 5 (5=81-100%) | 5 (5=81-100%) | 0 | 5 (5=81-100%) | 4 (4=61-80%) | 4 (4=61-80%) | 3 (3=41-60%) | 3 (3=41-60%) | 5 (5=81-100%)
